Read-outs that look alike come from different tables or passages of the source.
How the values were obtained:
[1] = target: T1, cyclo-oxygenase (Bos taurus, UniProt O62664); experiment: Inhibition of biosynthesis of prostaglandins in vitro (microsomal preparation of seminal vesicules); format: biochemical, bulls
T1 construct: a cyclo-oxygenase contained in a microsomal preparation of seminal vesicules of bulls; from tissue; host or cells: bull seminal vesicles, microsomal preparation
T1 sequence (O62664 25-600): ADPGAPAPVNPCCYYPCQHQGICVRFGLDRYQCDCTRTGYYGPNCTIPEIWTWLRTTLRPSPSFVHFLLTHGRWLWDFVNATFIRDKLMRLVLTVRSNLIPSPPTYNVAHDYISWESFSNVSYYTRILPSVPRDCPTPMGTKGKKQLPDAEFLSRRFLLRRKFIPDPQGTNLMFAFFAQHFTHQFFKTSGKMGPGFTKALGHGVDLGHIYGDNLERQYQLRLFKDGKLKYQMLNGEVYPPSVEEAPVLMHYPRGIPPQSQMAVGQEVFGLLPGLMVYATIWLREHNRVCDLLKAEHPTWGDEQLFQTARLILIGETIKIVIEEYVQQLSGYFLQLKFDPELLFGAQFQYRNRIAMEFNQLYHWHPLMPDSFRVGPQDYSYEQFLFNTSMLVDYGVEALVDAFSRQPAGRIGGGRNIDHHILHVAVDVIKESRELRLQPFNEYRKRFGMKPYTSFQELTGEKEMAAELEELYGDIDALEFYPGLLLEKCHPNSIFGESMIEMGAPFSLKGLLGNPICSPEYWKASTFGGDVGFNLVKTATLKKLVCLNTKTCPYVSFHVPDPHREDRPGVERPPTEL
Procedure: B. Inhibition of biosynthesis of prostaglandins in vitro
Arachidonic acid is converted into prostaglandins (PGs) of the […] by a cyclo-oxygenase contained in a microsomal preparation of seminal vesicules of bulls by the method of Tagekuchi et al [Biochemistry, Vol. 10 (1971), P. 2372]. The precursor at a concentration of 15×10^-6 M was incubated in the presence of a fixed concentration of proteins of the seminal vesicule preparation and the test product at 37° C. for 30 minutes. The reaction was stopped by immersion into boiling water for one minute and then centrifugation. The prostaglandins were determined by radio-immunoassay by the procedure of Dray et al [European J. Clin. Invest., Vol. 5 (1975), p. 311] to specifically evaluate for PGE2 and PGF2 α. The CI50 dose or dose that inhibited the activity by 50% was calculated for each of the two prostaglandins and was 2×10^-5 M for the compound of Example 1.

[2] = target: T2, 5-lipoxygenase (Rattus norvegicus, UniProt P12527); experiment: Dosage of 5-lipoxygenase of rat neutrophiles (Leucotriene B4 by radioimmunoassay); format: cell-based; settings: rat peritoneal neutrophiles, 10 μM ionophore A 23187, Leucotriene B4; read-out: CI50 5-lipoxygenase
T2 construct: Dosage of 5-lipoxygenase of rat neutrophiles; endogenous in cells; host or cells: rat peritoneal neutrophils elicited with sodium caseinate
T2 sequence (P12527 1-673): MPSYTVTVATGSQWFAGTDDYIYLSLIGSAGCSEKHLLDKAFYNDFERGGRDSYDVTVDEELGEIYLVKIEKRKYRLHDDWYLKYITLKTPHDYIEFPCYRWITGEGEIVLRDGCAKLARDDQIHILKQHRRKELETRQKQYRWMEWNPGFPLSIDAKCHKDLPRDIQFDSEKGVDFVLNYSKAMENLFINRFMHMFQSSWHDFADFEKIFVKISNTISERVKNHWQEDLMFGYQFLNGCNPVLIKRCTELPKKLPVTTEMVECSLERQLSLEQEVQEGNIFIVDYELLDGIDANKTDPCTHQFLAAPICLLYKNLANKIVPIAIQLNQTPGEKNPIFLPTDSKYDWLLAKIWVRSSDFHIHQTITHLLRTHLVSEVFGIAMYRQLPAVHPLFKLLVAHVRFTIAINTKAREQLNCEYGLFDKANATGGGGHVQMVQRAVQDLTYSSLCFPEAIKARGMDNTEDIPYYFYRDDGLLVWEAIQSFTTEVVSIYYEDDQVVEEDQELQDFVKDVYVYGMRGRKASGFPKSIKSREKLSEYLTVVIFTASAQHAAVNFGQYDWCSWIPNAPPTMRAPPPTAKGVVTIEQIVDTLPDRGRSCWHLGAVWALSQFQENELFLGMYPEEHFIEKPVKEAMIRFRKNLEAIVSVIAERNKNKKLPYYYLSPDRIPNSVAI
Procedure: 3. Dosage of 5-lipoxygenase of rat neutrophiles
Peritoneal neutrophile (5×10^6 cells/ml) obtained after intraperitoneal injection of 12% sodium caseinate were preincubated at 37° C. for 5 minutes in the presence of the test product or solvent used. The incubation was effected under the same conditions in the presence of 10 μM of ionophore A 23187 and […] of calcium chloride. After 5 minutes, the incubates were placed in ice and centrifuged at 3000 g.

[3] = system: adjuvant arthritis (rear paw volume increase); experiment: Anti-inflammatory activity, adjuvant arthritis (preventive treatment); format: in vivo; settings: Rattus norvegicus; male rats, oral, day 0 to day 17, Freund type adjuvant; read-out: DA50 (dose that diminished by 50% the volume increase of the rear paws)
Procedure: A. Anti-inflammatory Activity-adjuvant arthritis (preventive treatment)
The injection of Freund type adjuvant into the rear paw of a rat provokes the rapid appearance of a primary inflammatory lesion in that paw and then after a latent period of 13 to 15 days, the appearance of a secondary arthritic condition occurs in the other rear paw The test was performed on male rats about 40 to 50 days old who received an intraplantary injection of 0.1 ml of Freund type adjuvant (suspension of 6 mg per ml of dead mycobacterium butyrium in vaseline oil). The rats received the test compound orally on day 0 (day of injection of adjuvant) until the day before they were killed (day 17). […] The activity of the test compounds was determined by the increase in the injected rear paw volume (primary and secondary inflammation) and the non-injected rear paw (secondary inflammation) as compared to the average volume of the corresponding paws of the arthritic control animals. The DA50 or the dose that diminished by 50% the volume increase of the rear paws of the treated animals as compared to the control animals was determined to be 8 mg/kg for the compound of Example 1.

Compound: CC(C(=O)O)c1cc2c(s1)C1(CCCCC1)CC2 (stereo not drawn) [Example 1, 4',5'-dihydro-α'-methyl-spiro[cyclohexane-1,6']-6H-[cyclopenta (b)thiophene]-2'-acetic acid]
- IC50 ([1]; arachidonic acid 15×10^-6 M, 37° C., 30 minutes, PGE2 and PGF2 α by radio-immunoassay, read-out: CI50 (dose that inhibited the activity by 50%), for each of PGE2 and PGF2 α): 20 µM
- IC50 [2]: 10 µM
- ED50 [3]: 8 mg/kg

Compound: CC(C(=O)N(C)O)c1cc2c(s1)C1(CCCCC1)CC2 (stereo not drawn) [Example 4, 4',5'-dihydro-α',N-dimethyl-N-hydroxy-spiro[cyclohexane-1,6']-6H-[cyclopenta (b)thiophene]-2-acetamide]
- IC50 ([1]; table value, read-out: CI50 cyclooxygenase): 200 µM
- IC50 [2]: 0.5 µM

From patent US4719224A, “Anti-inflammatory and analgesig thiophene acetic acid derivatives, compositions, and method of use therefor” (Roussel Uclaf, priority 1985, dated 1988)
